Experiments:
[1] = target: T1, human Melanin Concentrating Hormone receptor 1 (MCHR1) (Homo sapiens, UniProt Q99705); test: MCHr1 IC50 (MCH binding assay / MCHR1 receptor activation assay)
T1 construct: host or cells: CHO-K1 (membranes)

[2] = target: T2, human histamine H3 receptors (Homo sapiens, UniProt Q9Y5N1); test: Histamine H3 SPA with [3H]-N-α-methylhistamine and/or GTPγS binding assay
T2 construct: human histamine H3 receptors (full-length H3, the most prevalent brain isoform 445); host or cells: CHO-K1, stably expressing (membranes)
T2 sequence (Q9Y5N1 whole entry, canonical isoform): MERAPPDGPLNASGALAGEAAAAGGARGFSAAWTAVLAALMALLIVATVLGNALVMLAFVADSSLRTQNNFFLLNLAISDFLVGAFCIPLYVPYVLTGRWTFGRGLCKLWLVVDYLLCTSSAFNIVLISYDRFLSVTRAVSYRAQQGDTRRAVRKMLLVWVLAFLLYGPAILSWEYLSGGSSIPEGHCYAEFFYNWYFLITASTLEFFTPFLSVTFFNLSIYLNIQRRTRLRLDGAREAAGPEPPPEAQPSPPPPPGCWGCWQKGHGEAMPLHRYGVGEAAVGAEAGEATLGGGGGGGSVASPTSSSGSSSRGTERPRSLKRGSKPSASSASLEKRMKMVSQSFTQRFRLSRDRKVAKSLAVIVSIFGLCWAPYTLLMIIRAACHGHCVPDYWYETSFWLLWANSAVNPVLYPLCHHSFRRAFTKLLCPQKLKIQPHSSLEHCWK

T1 sequence (Q99705 whole entry): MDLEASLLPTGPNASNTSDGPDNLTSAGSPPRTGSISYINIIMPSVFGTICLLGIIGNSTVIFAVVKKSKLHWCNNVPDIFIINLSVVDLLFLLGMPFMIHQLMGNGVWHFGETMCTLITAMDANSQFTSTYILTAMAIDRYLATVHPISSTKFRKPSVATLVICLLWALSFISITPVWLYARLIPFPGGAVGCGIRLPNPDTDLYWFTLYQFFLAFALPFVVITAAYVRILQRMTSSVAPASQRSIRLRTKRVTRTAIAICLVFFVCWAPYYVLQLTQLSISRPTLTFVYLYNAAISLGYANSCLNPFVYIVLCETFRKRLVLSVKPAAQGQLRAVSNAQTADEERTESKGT

| IC50 [1] | IC50 [2] | SMILES |
| --- | --- | --- |
| 30 nM | – | CC1(C)COC12CN(Cc1ccc(OC3CN(C(=O)c4nnc(-c5ccccc5)o4)C3)c(Cl)c1)C2 [Example 10, (3-(2-Chloro-4-((3,3-dimethyl-1-oxa-6-azaspiro[3.3]heptan-6-yl)methyl)phenoxy)azetidin-1-yl)(5-phenyl-1,3,4-oxadiazol-2-yl)methanone] |
| 10 nM | 620 nM | O=C(c1nnc(-c2ccc(Cl)cc2)o1)N1CC(Oc2ccc(CN3CC4(COC4)C3)cc2)C1 [Example 2, (3-(4-(2-Oxa-6-azaspiro[3.3]heptan-6-ylmethyl)phenoxy)azetidin-1-yl)(5-(4-chlorophenyl)-1,3,4-oxadiazol-2-yl)methanone] |
| 17 nM | – | O=C(c1nnc(-c2ccccc2)o1)N1CC(Sc2ccc(CN3CC4(COC4)C3)cc2)C1 [Example 5, (3-(4-(2-Oxa-6-azaspiro[3.3]heptan-6-ylmethyl)phenylthio)azetidin-1-yl)(5-phenyl-1,3,4-oxadiazol-2-yl)methanone] |
| 24 nM | – | O=C(c1nnc(-c2ccccc2)o1)N1CC(Oc2ccc(CN3CC4(COC4)C3)cc2Cl)C1 [Example 8, (3-(4-(2-Oxa-6-azaspiro[3.3]heptan-6-ylmethyl)-2-chlorophenoxy)azetidin-1-yl)(5-phenyl-1,3,4-oxadiazol-2-yl)methanone] |
| 27 nM | – | COc1ccc(-c2nnc(C(=O)N3CC(Oc4ccc(CN5CC6(C5)OCC6(C)C)cc4)C3)o2)cc1 [Example 9, (3-(4-((3,3-Dimethyl-1-oxa-6-azaspiro[3.3]heptan-6-yl)methyl)phenoxy)azetidin-1-yl)(5-(4-methoxyphenyl)-1,3,4-oxadiazol-2-yl)methanone] |
| 12 nM | – | O=C(c1nnc(-c2ccc(OC(F)F)cc2)o1)N1CC(Oc2ccc(CN3CC4(COC4)C3)cc2)C1 [Example 7, (3-(4-(2-Oxa-6-azaspiro[3.3]heptan-6-ylmethyl)phenoxy)azetidin-1-yl)(5-(4-(difluoromethoxy)phenyl)-1,3,4-oxadiazol-2-yl)methanone] |
| 17 nM | 410 nM | O=C(c1nnc(-c2ccccc2)o1)N1CC(Oc2ccc(CN3CC4(COC4)C3)c(Cl)c2)C1 [Example 1, (3-(4-(2-Oxa-6-azaspiro[3.3]heptan-6-ylmethyl)-3-chlorophenoxy)azetidin-1-yl)(5-phenyl-1,3,4-oxadiazol-2-yl)methanone] |
| – | 800 nM | O=C(c1nnc(-c2ccccc2)o1)N1CC(Oc2ccc(CN3CC4(COC4)C3)cc2)C1 [Example 3, (3-(4-(2-Oxa-6-azaspiro[3.3]heptan-6-ylmethyl)phenoxy)azetidin-1-yl)(5-phenyl-1,3,4-oxadiazol-2-yl)methanone] |
| 24 nM | – | O=C(c1nnc(-c2ccc(F)cc2)o1)N1CC(Oc2ccc(CN3CC4(COC4)C3)cc2)C1 [Example 6, (3-(4-(2-Oxa-6-azaspiro[3.3]heptan-6-ylmethyl)phenoxy)azetidin-1-yl)(5-(4-fluorophenyl)-1,3,4-oxadiazol-2-yl)methanone] |

Source: patent publication US8110566B2, “Therapeutic agents 713” (AstraZeneca AB, priority 2009, dated 2012)
